Assay results as given in PubChem BioAssay AID248 (DTP/NCI, 2004).
Where “and” joins values, the source holds several entries; their conditions need not be identical. Equal entries are not always repeated. Inconclusive results and toxic doses are left out. No stated cut-off is given here; in the data, active means T/C of 150% or more; inactive means T/C below 125%.

Tested on: L1210 leukemia ip in BDF1 mice, survival T/C
Assay: NCI In Vivo Anticancer Drug Screen. Data for tumor model L1210 Leukemia (intraperitoneal) in B6D2F1 (BDF1) mice
Details: endpoint: mean survival time, higher = longer survival
Outline: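 In this screen, tumor-bearing mice given compound are compared to those given vehicle, and their survival values are reported as a treated-to-control quotient.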

[1] = dose: 25.0 mg/kg/injection, schedule: Q04DX003 (ip), vehicle: Klucel (hydroxypropylcellulose) (HPC)
[2] = dose: 50.0 mg/kg/injection, schedule: Q04DX003 (ip), vehicle: Klucel (hydroxypropylcellulose) (HPC)
[3] = dose: 100.0 mg/kg/injection, schedule: Q04DX003 (ip), vehicle: Klucel (hydroxypropylcellulose) (HPC)
[4] = dose: 100.0 mg/kg/injection, schedule: Q01DX001 (ip), vehicle: saline
[5] = dose: 100.0 mg/kg/injection, schedule: Q04DX003 (ip), vehicle: saline
[6] = dose: 200.0 mg/kg/injection, schedule: Q01DX001 (ip), vehicle: saline
[7] = dose: 200.0 mg/kg/injection, schedule: Q04DX003 (ip), vehicle: saline
[8] = dose: 400.0 mg/kg/injection, schedule: Q01DX001 (ip), vehicle: saline
[9] = dose: 400.0 mg/kg/injection, schedule: Q04DX003 (ip), vehicle: saline
[10] = dose: 12.5 mg/kg/injection, schedule: Q01DX009 (ip), vehicle: saline
[11] = dose: 12.5 mg/kg/injection, schedule: Q04DX003 (ip), vehicle: saline
[12] = dose: 25.0 mg/kg/injection, schedule: Q01DX009 (ip), vehicle: saline
[13] = dose: 25.0 mg/kg/injection, schedule: Q04DX003 (ip), vehicle: saline
[14] = dose: 50.0 mg/kg/injection, schedule: Q04DX003 (ip), vehicle: saline
[15] = dose: 100.0 mg/kg/injection, schedule: Q01DX009 (ip), vehicle: Klucel (hydroxypropylcellulose) (HPC)
[16] = dose: 200.0 mg/kg/injection, schedule: Q01DX009 (ip), vehicle: Klucel (hydroxypropylcellulose) (HPC)
[17] = dose: 400.0 mg/kg/injection, schedule: Q01DX009 (ip), vehicle: Klucel (hydroxypropylcellulose) (HPC)
[18] = dose: 100.0 mg/kg/injection, schedule: Q04DX002 (ip), vehicle: Klucel (hydroxypropylcellulose) (HPC)
[19] = dose: 200.0 mg/kg/injection, schedule: Q04DX002 (ip), vehicle: Klucel (hydroxypropylcellulose) (HPC)
[20] = dose: 400.0 mg/kg/injection, schedule: Q04DX002 (ip), vehicle: Klucel (hydroxypropylcellulose) (HPC)
[21] = dose: 50.0 mg/kg/injection, schedule: Q01DX001 (ip), vehicle: saline
[22] = dose: 100.0 mg/kg/injection, schedule: Q01DX001 (ip), vehicle: saline with Tween-80
[23] = dose: 200.0 mg/kg/injection, schedule: Q01DX001 (ip), vehicle: saline with Tween-80
[24] = dose: 200.0 mg/kg/injection, schedule: Q04DX003 (ip), vehicle: Klucel (hydroxypropylcellulose) (HPC)
[25] = dose: 400.0 mg/kg/injection, schedule: Q04DX003 (ip), vehicle: Klucel (hydroxypropylcellulose) (HPC)

Measured: T/C

O=C(NCCCCN1CC1)C(=O)Nc1ccccc1
inactive: dose: 12.5 mg/kg/injection, schedule: Q04DX003 (ip), vehicle: Klucel (hydroxypropylcellulose) (HPC) 97 % of control | [1] 93 % of control | [2] 98 % of control | [3] 103 % of control

CCC(C)(O)C#CC(C)(O)CC (centres undefined)
inactive: [4] 100 % of control | dose: 100.0 mg/kg/injection, schedule: Q01DX009 (ip), vehicle: saline 101 % of control | [5] 105 % of control | [6] 106 % of control | dose: 200.0 mg/kg/injection, schedule: Q01DX009 (ip), vehicle: saline 100 % of control | [7] 105 % of control | [8] 102 % of control | [9] 100 % of control

NC(=O)CC(NC(=O)OCc1ccccc1)C(=O)OCc1ccccc1 (centres undefined)
inactive: dose: 100.0 mg/kg/injection, schedule: Q01DX009 (ip), vehicle: saline with Tween-80 106 % of control | dose: 100.0 mg/kg/injection, schedule: Q04DX003 (ip), vehicle: saline with Tween-80 96 % of control | dose: 200.0 mg/kg/injection, schedule: Q01DX009 (ip), vehicle: saline with Tween-80 95 % of control | dose: 200.0 mg/kg/injection, schedule: Q04DX003 (ip), vehicle: saline with Tween-80 96 % of control | dose: 400.0 mg/kg/injection, schedule: Q01DX009 (ip), vehicle: saline with Tween-80 93 % of control | dose: 400.0 mg/kg/injection, schedule: Q04DX003 (ip), vehicle: saline with Tween-80 91 % of control

N#CCCCCN=[N+]=[N-]
inactive: dose: 37.5 mg/kg/injection, schedule: Q04DX003 (ip), vehicle: saline 87 % of control | dose: 75.0 mg/kg/injection, schedule: Q04DX003 (ip), vehicle: saline 104 % of control | dose: 150.0 mg/kg/injection, schedule: Q04DX003 (ip), vehicle: saline 98 % of control

FC(F)(F)c1ccc2c(c1)N(CCCN1CCN(CCN3CCCCC3)CC1)c1ccccc1S2
inactive: [10] 93 % of control | [11] 94 % of control | [12] 86 % of control | [13] 96 % of control | [14] 92 % of control

CCOc1ccc(NS(=O)(=O)c2ccc(Cl)cc2)cc1
inactive: [15] 102 % of control | [16] 112 % of control | [17] 116 % of control

CSc1nc(N)c(N)c(N)n1
inactive: [18] 103 % of control | [19] 110 % of control | [20] 103 % of control

CC1CCC(C)OCO1 (centres undefined)
inactive: dose: 50.0 mg/kg/injection, schedule: Q01DX009 (ip), vehicle: acetone 97 % of control | dose: 100.0 mg/kg/injection, schedule: Q01DX009 (ip), vehicle: acetone 98 % of control | dose: 200.0 mg/kg/injection, schedule: Q01DX009 (ip), vehicle: acetone 88 % of control

C[CH2][Sn]([CH2]C)([O]S(=O)(=O)CC12CCC(CC1=O)C2(C)C)[O]S(=O)(=O)CC12CCC(CC1=O)C2(C)C
inactive: dose: 3.12 mg/kg/injection, schedule: Q01DX009 (ip), vehicle: saline 106 % of control | dose: 5.5 mg/kg/injection, schedule: Q01DX009 (ip), vehicle: saline 109 % of control | dose: 6.25 mg/kg/injection, schedule: Q01DX009 (ip), vehicle: saline 106 % of control and 107 % of control | dose: 6.25 mg/kg/injection, schedule: Q04DX003 (ip), vehicle: saline 112 % of control | dose: 8.2 mg/kg/injection, schedule: Q01DX009 (ip), vehicle: saline 118 % of control | dose: 11.0 mg/kg/injection, schedule: Q04DX003 (ip), vehicle: saline 113 % of control | [10] 106 % of control and 120 % of control | dose: 12.5 mg/kg/injection, schedule: Q04DX002 (ip), vehicle: saline 104 % of control | [11] 114 % of control | dose: 16.0 mg/kg/injection, schedule: Q04DX003 (ip), vehicle: saline 104 % of control | dose: 18.0 mg/kg/injection, schedule: Q01DX009 (ip), vehicle: saline 117 % of control | dose: 22.0 mg/kg/injection, schedule: Q04DX002 (ip), vehicle: saline 107 % of control | dose: 25.0 mg/kg/injection, schedule: Q01DX001 (ip), vehicle: saline 109 % of control | [12] 112 % of control and 115 % of control and 120 % of control | dose: 25.0 mg/kg/injection, schedule: Q04DX002 (ip), vehicle: saline 106 % of control | [13] 112 % of control and 117 % of control | dose: 35.0 mg/kg/injection, schedule: Q04DX002 (ip), vehicle: saline 116 % of control | dose: 35.0 mg/kg/injection, schedule: Q04DX003 (ip), vehicle: saline 113 % of control | dose: 45.0 mg/kg/injection, schedule: Q01DX001 (ip), vehicle: saline 120 % of control | [21] 114 % of control | [14] 102 % of control | dose: 55.0 mg/kg/injection, schedule: Q04DX003 (ip), vehicle: saline 112 % of control

O=[N+]([O-])c1cccc(OCCCOc2ccc(S(=O)(=O)F)cc2)c1
inactive: [22] 96 % of control | [23] 98 % of control | dose: 400.0 mg/kg/injection, schedule: Q01DX001 (ip), vehicle: saline with Tween-80 90 % of control

CN(CCC(=O)c1ccccc1)CCC(=O)c1ccccc1
inactive: [22] 93 % of control | [23] 94 % of control

Cc1c(Cl)cccc1NC(=O)Nc1ccccc1Cl
inactive: [15] 104 % of control | [3] 92 % of control | [16] 103 % of control | [24] 91 % of control | [17] 100 % of control | [25] 92 % of control

CN(C1=NS(=O)(=O)N=C(N(C)c2ccccc2)O1)c1ccccc1
inactive: [3] 102 % of control | [24] 102 % of control | [25] 98 % of control

CC1(C(Cl)Cl)CCCCC1=O (centres undefined)
inactive: dose: 5.0 mg/kg/injection, schedule: Q01DX001 (ip), vehicle: saline 95 % of control | dose: 10.0 mg/kg/injection, schedule: Q01DX001 (ip), vehicle: saline 96 % of control | dose: 20.0 mg/kg/injection, schedule: Q01DX001 (ip), vehicle: saline 109 % of control | dose: 40.0 mg/kg/injection, schedule: Q01DX001 (ip), vehicle: saline 100 % of control | dose: 80.0 mg/kg/injection, schedule: Q01DX001 (ip), vehicle: saline 97 % of control | [4] 104 % of control

Cc1c(Cl)cccc1NC(=O)N1CCN(C)CC1
inactive: [15] 98 % of control and 107 % of control | [18] 106 % of control and 91 % of control | [16] 109 % of control and 92 % of control | [19] 101 % of control and 91 % of control | [20] 110 % of control and 90 % of control

CCN(CC)CCN(CCO)Cc1ccccc1
inactive: [1] 98 % of control | dose: 50.0 mg/kg/injection, schedule: Q01DX009 (ip), vehicle: Klucel (hydroxypropylcellulose) (HPC) 92 % of control | [2] 96 % of control | [15] 100 % of control | [3] 98 % of control and 101 % of control

CC(C)(C)C(=O)N/N=C\c1ccc([N+](=O)[O-])s1
inactive: [5] 93 % of control | [7] 87 % of control | [9] 94 % of control

COc1ccccc1CN1CCCN(Cc2ccccc2OC)C1c1cccc(F)c1
inactive: dose: 50.0 mg/kg/injection, schedule: Q01DX001 (ip), vehicle: carboxymethylcellulose (CMC) 112 % of control | dose: 100.0 mg/kg/injection, schedule: Q01DX001 (ip), vehicle: carboxymethylcellulose (CMC) 108 % of control | dose: 200.0 mg/kg/injection, schedule: Q01DX001 (ip), vehicle: carboxymethylcellulose (CMC) 108 % of control | dose: 400.0 mg/kg/injection, schedule: Q01DX001 (ip), vehicle: carboxymethylcellulose (CMC) 102 % of control

O=C(CC1(O)CCCCC1)Nc1ccccc1
inactive: [21] 100 % of control | [4] 97 % of control | [6] 101 % of control | [8] 97 % of control

O=C(COc1cc(Cl)cc(Cl)c1)NCc1ccc(Cl)cc1
inactive: [15] 91 % of control | [3] 95 % of control | [16] 88 % of control | [24] 95 % of control | [17] 95 % of control | [25] 88 % of control
